Experimental data reported in ChEMBL document CHEMBL4184230, “Design, synthesis and biological evaluation of novel pyrazolo-oxothiazolidine derivatives as antiproliferative agents against human lung cancer cell line A549” (Bioorg Med Chem Lett, 2018).
≈ marks a conversion by molar mass, not a printed value.

System: A549
Assay: Antiproliferative activity against human A549 cells incubated for 96 hrs by MTT assay
Assay type: functional, cell-based
Conditions: A549, 96 h

| Structure (SMILES) | IC50 [µg/mL] |
| --- | --- |
| COC(=O)/C=C1/SC(N2N=C(c3cc4ccccc4o3)CC2c2ccc(OC)c(OC)c2)=NC1=O (stereo unspecified) | 0.967 (≈ 1.97 µM) |
| COC(=O)/C=C1/SC(N2N=C(c3cc4ccccc4o3)CC2c2ccc(Cl)cc2)=NC1=O (stereo unspecified) | 1.08 (≈ 2.31 µM) |
| COC(=O)/C=C1/SC(N2N=C(c3cc4ccccc4o3)CC2c2ccc(F)cc2)=NC1=O (stereo unspecified) | 0.808 (≈ 1.8 µM) |
| COC(=O)/C=C1/SC(N2N=C(c3cc4ccccc4o3)CC2c2ccc(OC)cc2)=NC1=O (stereo unspecified) | 2.44 (≈ 5.3 µM) |
| CCOC(=O)/C=C1/SC(N2N=C(c3cc4ccccc4o3)CC2c2ccc(OC)c(OC)c2)=NC1=O (stereo unspecified) | 3.42 (≈ 6.76 µM) |
| CNC(=O)c1cc(Oc2ccc(NC(=O)Nc3ccc(Cl)c(C(F)(F)F)c3)cc2)ccn1 [SORAFENIB] | 3.78 (≈ 8.13 µM) |

Now from value to compound:

| IC50 [µg/mL] | Structure (SMILES) |
| --- | --- |
| 1.21 (≈ 2.54 µM) | CCOC(=O)/C=C1/SC(N2N=C(c3cc4ccccc4o3)CC2c2ccc(OC)cc2)=NC1=O (stereo unspecified) |
| > 5 | CCOC(=O)/C=C1/SC(N2N=C(c3cc4ccccc4o3)CC2c2ccc(Cl)cc2)=NC1=O (stereo unspecified) |
| 4.29 (≈ 8.41 µM) | COC(=O)/C=C1/SC(N2N=C(c3cc4ccccc4o3)CC2c2cccc(Br)c2)=NC1=O (stereo unspecified) |
| > 5 | CCOC(=O)/C=C1/SC(N2N=C(c3cc4ccccc4o3)CC2c2cccc(Br)c2)=NC1=O (stereo unspecified) |
| 0.93 (≈ 2.01 µM) | CCOC(=O)/C=C1/SC(N2N=C(c3cc4ccccc4o3)CC2c2ccc(F)cc2)=NC1=O (stereo unspecified) |
